Source: patent USRE38333E1, “Antiviral phosphonomethoxy nucleotide analogs having increased oral bioavailability” (Gilead Sciences, Inc., priority 1996, dated 2003)

Tested on: MT-2 cells
Experiment: Cytotoxicity in MT-2 cells
Format: cell-based
Settings: MT-2 cells; read-out: CC50 (concentration to kill 50% of the cells)
Experimental: (§1) PMPA (9-[(R)-2-(phosphonomethoxy)propyl]adenine) and PMPA carbonates were examined to determine their activity against HIV-1. The antiviral activity of the carbonates 5a, 5c-g against HIV-1 (IIIB) was determined in MT-2 cells and the IC50 (50% inhibitory concentration) and CC50 (concentration to kill 50% of the cells) values were measured. […] The increased activity can be attributed to increased cellular uptake of the prodrugs followed by effective intracellular conversion to PMPA, which undergoes subsequent phosphorylation to the antivirally active diphosphate metabolite. […] The partition coefficient values support this hypothesis, with all prodrugs being more lipophilic (logP=0.6-3.2) compared to PMPA (logP=−2.5). [drawing 32]

Row | Structure (SMILES) | CC50
1 | C[C@H](Cn1cnc2c(N)ncnc21)OCP(=O)(OCOC(=O)OC(C)(C)C)OCOC(=O)OC(C)(C)C [Bis-t-Bu COM PMPA] | 10 µM

Tested on: not listed separately
Experiment: Cytotoxicity in MT-2 cells
Format: cell-based
Settings: human
Experimental: as §1

Row | Structure (SMILES) | CC50
2 | C[C@H](Cn1cnc2c(N)ncnc21)OCP(=O)(O)O [PMPA, 9-[(R)-2-(phosphonomethoxy)propyl]adenine, reference compound] | 250 µM

Tested on: not given
Experiment: not given
Format: in vitro ADME
Settings: 37° C., 20 μg/mL
Experimental: (§2) Enzymatic stability studies involving plasma and intestinal homogenate were performed with 90% biological fluids.
(§3) One blank (drug free) incubation was performed for each biological fluid. All biological fluid tubes (open) were pre-incubated without PMPA prodrugs in a shaker bath at 37° C. and 100 oscillation/min for 5 minutes. PMPA prodrugs was added to the test incubations (final concentration: 20 μg/mL, mixed and maintained at 37° C. and 100 oscillations/min. Samples (50 μL) were withdrawn at 0, 30, and 60 minutes and the reaction was quenched with 100 μL of 0.1% trifluoroacetic acid (TFA) in acetonitrile. Quenched samples were centrifuged for 5 minutes at 14,000 rpm in an Eppendorf Centrifuge 5402, and the supernatant was used for HPLC analysis.
(§4) For each incubation, the observed rate constant for degradation was calculated by plotting the log of the peak area of PMPA prodrugs versus time of incubation (min). The slope was the observed rate constant (kobs). The half life was calculated according to the following equation: [formula]
(§5) If the observed rate constant for degradation was less than 0.01 min^−1, then t½ was expressed as stable.

Row | Structure (SMILES) | Biological t½ (min) (Dog) Plasma
3 | CCOC(=O)OC(C)OP(=O)(CO[C@H](C)Cn1cnc2c(N)ncnc21)OC(C)OC(=O)OCC (stereo partly shown) [Bis-EtCOE PMPA] | 42.6 min
4 | CCOC(=O)OCOP(=O)(CO[C@H](C)Cn1cnc2c(N)ncnc21)OCOC(=O)OCC [Bis-EtCOM PMPA, Bis-ethyl Oxymethyl Carbonate of PMPA] | 16.6 min
5 | C[C@H](Cn1cnc2c(N)ncnc21)OCP(=O)(OCOC(=O)OC(C)(C)C)OCOC(=O)OC(C)(C)C [Bis-t-Bu COM PMPA] | 21.2 min

Tested on: not listed separately
Experiment: Enzymatic stability in dog liver homogenate (S9)
Format: in vitro ADME
Settings: 37° C., 20 μg/mL
Experimental: Dog liver was obtained fresh from Pharmakon USA (Waverly, Pa.). Liver homogenate was prepared following a standard protocol. Dog liver was rinsed three times with ice-code 50 mM sodium/potassium phosphate buffer and homogenized with a Tekmar Tissumizer homogenizer (VWR 33995-060). The homogenate was centrifuged at 9000 g (11,000 rpm for Eppendorf Centrifuge 5402; Brinkman Instruments, Westbury, N.Y.) at 4° C. for 20 minutes. The supernatant was designated at the S9 fraction. The concentration of protein in the S9 fraction was determined using a Bio-Rad Protein Assay Kit II, with bovine serum albumin as standard. Esterase activity was determined using o-nitrophenyl butyreate as substrate and activity was calculated based on the increase in absorbance at 420 nm after a 1 min incubation. The homogenates were stored as 1.0 mL aliquots at −70° C.
as §3, §4, §5

Row | Structure (SMILES) | Biological t½ (min) (Dog) Liver
6 | CCOC(=O)OC(C)OP(=O)(CO[C@H](C)Cn1cnc2c(N)ncnc21)OC(C)OC(=O)OCC (stereo partly shown) [Bis-EtCOE PMPA] | <5 min
7 | CCOC(=O)OCOP(=O)(CO[C@H](C)Cn1cnc2c(N)ncnc21)OCOC(=O)OCC [Bis-EtCOM PMPA, Bis-ethyl Oxymethyl Carbonate of PMPA] | <5 min
8 | C[C@H](Cn1cnc2c(N)ncnc21)OCP(=O)(OCOC(=O)OC(C)(C)C)OCOC(=O)OC(C)(C)C [Bis-t-Bu COM PMPA] | 14.9 min

Tested on: not listed separately
Experiment: Enzymatic stability in human intestinal homogenate (S9)
Format: in vitro ADME
Settings: human intestinal homogenate (values in parentheses), 37° C., 20 μg/mL
Experimental: Human intestinal homogenate (S9) was obtained from Keystone Skin Bank (Exton, Pa.) at concentration of 20 mg protein/mL.
as §2, §3, §4, §5

Row | Structure (SMILES) | Biological t½ (min) (Human) Intestine
9 | CCOC(=O)OCOP(=O)(CO[C@H](C)Cn1cnc2c(N)ncnc21)OCOC(=O)OCC [Bis-EtCOM PMPA, Bis-ethyl Oxymethyl Carbonate of PMPA] | (<5) min
10 | C[C@H](Cn1cnc2c(N)ncnc21)OCP(=O)(OCOC(=O)OC(C)(C)C)OCOC(=O)OC(C)(C)C [Bis-t-Bu COM PMPA] | (<5) min

Tested on: HIV-1 (IIIB)
Experiment: microbe, parasite or virus in culture
Format: cell-based
Settings: HIV-1 (IIIB), MT-2 cells; read-out: IC50 (50% inhibitory concentration)
Source text: PMPA (9-[(R)-2-(phosphonomethoxy)propyl]adenine) and PMPA carbonates were examined to determine their activity against HIV-1.

Row | Structure (SMILES) | IC50
11 | C[C@H](Cn1cnc2c(N)ncnc21)OCP(=O)(OCOC(=O)OC(C)(C)C)OCOC(=O)OC(C)(C)C [Bis-t-Bu COM PMPA] | 0.2 µM

Same assay, conditions: HIV-1 (IIIB), MT-2 cells; relative to PMPA

Row | Structure (SMILES) | increased potency compared to PMPA
12 | C[C@H](Cn1cnc2c(N)ncnc21)OCP(=O)(OCOC(=O)OC(C)(C)C)OCOC(=O)OC(C)(C)C [Bis-t-Bu COM PMPA] | 2.5 fold

Same assay, conditions: Human immunodeficiency virus 1, MT2; HIV-1 (IIIB), MT-2 cells; read-out: IC50 (50% inhibitory concentration)

Row | IC50 | Structure (SMILES)
13 | 0.5 µM | C[C@H](Cn1cnc2c(N)ncnc21)OCP(=O)(O)O [PMPA, 9-[(R)-2-(phosphonomethoxy)propyl]adenine, reference compound]

Same assay, conditions: MT-2 cells, HIV-1

Row | Structure (SMILES) | SI, Selectivity Index (CC50/IC50)
14 | C[C@H](Cn1cnc2c(N)ncnc21)OCP(=O)(O)O [PMPA, 9-[(R)-2-(phosphonomethoxy)propyl]adenine, reference compound] | 500

Tested on: not listed separately
Experiment: Partition coefficient (Log PC)
Format: physicochemical
Settings: not given

Row | Structure (SMILES) | Log PC pH 7.4
15 | CCOC(=O)OCOP(=O)(CO[C@H](C)Cn1cnc2c(N)ncnc21)OCOC(=O)OCC [Bis-EtCOM PMPA, Bis-ethyl Oxymethyl Carbonate of PMPA] | 0.6
16 | C[C@H](Cn1cnc2c(N)ncnc21)OCP(=O)(OCOC(=O)OC(C)(C)C)OCOC(=O)OC(C)(C)C [Bis-t-Bu COM PMPA] | 1.93

Tested on: not given
Experiment: not given
Format: in vitro ADME
Settings: dog intestinal homogenate, 37° C., 20 μg/mL
Experimental: Dog intestinal segments (jejunum/ileum) were obtained fresh from Pharmakon USA (Waverly, Pa.) and intestinal homogenate was prepared as described for liver. The intestinal homogenates were stored as 1.0 mL aliquots at −70° C.
as §2, §3, §4, §5

Row | Structure (SMILES) | Biological t½ (min) (Dog) Intestine
17 | CCOC(=O)OC(C)OP(=O)(CO[C@H](C)Cn1cnc2c(N)ncnc21)OC(C)OC(=O)OCC (stereo partly shown) [Bis-EtCOE PMPA] | 62.4 min
18 | CCOC(=O)OCOP(=O)(CO[C@H](C)Cn1cnc2c(N)ncnc21)OCOC(=O)OCC [Bis-EtCOM PMPA, Bis-ethyl Oxymethyl Carbonate of PMPA] | 23.3 min
19 | C[C@H](Cn1cnc2c(N)ncnc21)OCP(=O)(OCOC(=O)OC(C)(C)C)OCOC(=O)OC(C)(C)C [Bis-t-Bu COM PMPA] | 26.6 min

Tested on: not listed separately
Experiment: Oral bioavailability of PMPA and PMPA carbonates in beagle dogs
Format: in vivo
Settings: 6.2-10 mg eq of PMPA/kg, PMPA in plasma
Experimental: PMPA (9-[(R)-2-(phosphonomethoxy)propyl]adenine) and PMPA carbonates were examined to determine the effect of dose on the pharmacokinetics of PMPA in beagle dogs, in particular the bioavailability of PMPA following oral administration to beagle dogs.
The intravenous formulations used as standards were isotonic aqueous solutions containing 50 mg/mL PMPA. Compound was added to 10 mL of WFI (water for injection from Abbott Laboratory) and 1N NaOH was added to adjust the pH to 7.4. The solutions were diluted to 15 mL with WFI and sterile filtered with a 0.2 μm filter. The PMPA dose was 10 mg/kg (0.2 mL/kg).
The intravenous formulation for a 1 mg/kg dose was prepared as described above except only 75 mg of PMPA was added to WFI and the final concentration was 5 mg/mL. The dose was 1 mg/kg (0.2 mL/kg). Oral formulations of carbonates were prepared in 20-40% PEG 400/50 mM citric acid and were adjusted to pH 2.2.
Two groups of five adult male beagle dogs were used. The mean body weight at the time of the first does was 9.6±0.4 Kg (range 9.2-10.2). The dogs were fasted 12-18 hours prior to dosing and until 6 hours post-dose. For pentagastrin pretreatment, dogs were given a single intramuscular injection of pentagastrin (Peptavlon 0.25 mg/mL, Ayerst Laboratories, Inc., Philadelphia, Pa.) at a dose of 6 μg/kg, 20 minutes prior to dosing. Water was provided ad lib.
Each formulation was administered as a single dose to five male beagle dogs. Individual vials of each formulation were provided for each animal. The intravenous formulation was administrated via a cephalic vein. The oral suspension was administered by gavage, followed by two 10 mL water washes. At least one week washout period was allowed between administrations.
Blood samples (4.0 mL) were collected by direct jugular access from each animal into heparinized tubes. Animals remained conscious throughout the sample collection period. Blood was processed immediately for plasma by centrifugation at 2000 rpm for 10 minutes. Plasma samples were frozen and maintained at ≦−20° C. until analyzed.
Urine samples were collected over 0-24 and 24-48 hours time periods. Urine samples from 0-24 and 24-48 hours were divided into aliquots and mixed based on the volume collected and analyzed to determine amount of PMPA recovered from urine during 0-48 hours.
PMPA in Plasma and Urine was determined as follows. PMEA (9-(2-phosphono-methoxyethyl)adenine; adefovir) was used as the internal standard for both analyses. The total concentration of PMPA in dog plasma or urine samples was determined by derivatizing PMPA and PMEA with chloroacetaldehyde to yield a highly fluorescent N^1,N^6-ethenoadenine derivative as described (Russell, J. et al. (1991) Determination of 9-[(2-Phosophonylmethoxy)-ethyl]Adenine in Rat Urine by High-Performance Liquid Chromatography with Fluorescence Detection. J. Chromatogr. (Netherlands) 572, 321-326).
Sample Extraction for PMPA in plasma and urine was performed as follows. Plasma (200 μL) and internal standard ([…]) were mixed with 400 μL of acetonitrile containing 0.1% TFA to precipitate protein. Samples were then evaporated to dryness under reduced pressure at room temperature (Savant SpeedVac). Urine samples (20 μL) and internal standard (30 μL of 10 μg/mL PMEA providing a final PMEA concentration of 1.5 μg/mL) were used directly for derivatization without drying.
The samples were derivatized for analysis as follows. Dried plasma samples or urine samples were reconstituted or mixed in 200 μL derivatization cocktail (0.34% chloroacetaldehyde in 100 mM sodium acetate, pH 4.5), vortexed, and centrifuged for 10 minutes at 14,000 rpm in an Eppendorf Centrifuge 5402. Supernatant was then transferred to a clean screw capped tube and incubated at 95° C. for 40 minutes. Derivatized samples were quenched on ice and evaporated to dryness under reduced pressure at room temperature. […]

Row | Structure (SMILES) | % of PMPA IV (1 mg/kg) AUC: PMPA
20 | CCOC(=O)OCOP(=O)(CO[C@H](C)Cn1cnc2c(N)ncnc21)OCOC(=O)OCC [Bis-EtCOM PMPA, Bis-ethyl Oxymethyl Carbonate of PMPA] | 29.3 ± 3.4%
21 | C[C@H](Cn1cnc2c(N)ncnc21)OCP(=O)(OCOC(=O)OC(C)(C)C)OCOC(=O)OC(C)(C)C [Bis-t-Bu COM PMPA] | 36.2 ± 6.76%

Same assay, conditions: intact prodrug in plasma

Row | Structure (SMILES) | % of PMPA IV (1 mg/kg) AUC: Prodrug
22 | CCOC(=O)OCOP(=O)(CO[C@H](C)Cn1cnc2c(N)ncnc21)OCOC(=O)OCC [Bis-EtCOM PMPA, Bis-ethyl Oxymethyl Carbonate of PMPA] | 0%

Same assay, conditions: monoester in plasma

Row | Structure (SMILES) | % of PMPA IV (1 mg/kg) AUC: Monoester
23 | CCOC(=O)OCOP(=O)(CO[C@H](C)Cn1cnc2c(N)ncnc21)OCOC(=O)OCC [Bis-EtCOM PMPA, Bis-ethyl Oxymethyl Carbonate of PMPA] | −2%

Same assay, conditions: other species in plasma

Row | Structure (SMILES) | % of PMPA IV (1 mg/kg) AUC: other
24 | CCOC(=O)OCOP(=O)(CO[C@H](C)Cn1cnc2c(N)ncnc21)OCOC(=O)OCC [Bis-EtCOM PMPA, Bis-ethyl Oxymethyl Carbonate of PMPA] | 0%

Same assay, conditions: urine 0-48 hours

Row | Structure (SMILES) | Urinary Recovery (% as PMPA)
25 | C[C@H](Cn1cnc2c(N)ncnc21)OCP(=O)(OCOC(=O)OC(C)(C)C)OCOC(=O)OC(C)(C)C [Bis-t-Bu COM PMPA] | 34.9%
